{
  "source": "patent US3982999A",
  "about": "“Complexing cresolase with copper chelating agents” (priority 1974, dated 1976)",
  "key": {"[1]": {"test_system": "Tyrosinase (polyphenol oxidase) isolated from mushrooms", "conditions": "control 0.0433", "description": "^a Tyrosinase (polyphenol oxidase) isolated from mushrooms and purchased from Sigma, St. Louis, Mo. The reaction was carried out in 2 quartz curvette containing 1 ml of phosphate buffer (0.5 M, pH 6.5) 1 ml of substrate (1 mM L-tyrosine in H2 O), 0.5 ml of solvent or drug, 0.5 ml H2 O (for blank), 0.4 ml H2 O and 0.1 ml of enzyme (0.5 mg/ml) for the reaction tube. The reaction was started by the addition of enzyme and the change of optical density (Δ O.D.) was determined at 1 min intervals."}, "[2]": {"test_system": "L1210 leukemia cells", "assay": "3-day L1210 cell growth inhibition assay in culture (complete or regular medium)", "format": "cell-based, mouse", "conditions": "for L1210 Cell Growth (cell concentration day 3 - day 0): control growth 147.9", "source_text": "(§1) In this experiment, we further investigated the effects of tyrosinase on L1210 cell growth with two media; 1) complete or regular medium and; 2) tyrosine-phenylalanine depleted medium.\n(§2) ^a 3-day cell growth inhibition assay.\n^b Cell Growth = (cell concentration day 3 - cell concentration day 0"}, "[3]": {"test_system": "L1210 leukemia cells", "assay": "3-day L1210 cell growth inhibition assay in tyrosine-phenylalanine depleted medium", "format": "cell-based, mouse", "conditions": "Tyrosine and Phenylalamine Depleted Medium, 0.15 g/ml 8-Hydroxyquinoline", "source_text": "as §1, §2"}, "[4]": {"assay": "Preliminary toxicity study, single intraperitoneal dose", "conditions": "mouse, in vivo, ip; single intraperitoneal (i.p.) dose, suspended in Klucel (0.3% hydroxy-propylcellulose), male BDF1 mice"}, "[5]": {"test_system": "L1210 mouse leukemia", "assay": "Antileukemia activity against L1210 mouse leukemia in BDF1 mice (survival)", "format": "in vivo", "conditions": "for T/C (test group mean day of death / control group mean day of death): Day 1 through Day 9, uninjected control group", "description": "(§3) Male BDF1 mice, initial weight ca 23g, were inoculated i.p. on Day 0 with 10^5 L1210 cells per mouse. Treatment was initiated on Day 1 and continued through Day 9. Animals were weighed on days 1 and 5 to assess toxicity. Agents were prepared fresh daily as follows: 8-OH-quinoline (Eastman Chemical Co.) was dissolved in a small volume of absolute ethanol and diluted to the appropriate concentration with 0.1M sodium phosphate buffer, pH 6.5 (final ethanol concentration: 3%). Dilutions were made in buffer containing 3% ethanol. Tyrosinase^2 (Sigma Chemical Co., lot 121C-9530) was dissolved in buffer containing 3% ethanol. (Previous studies had shown that 3% ethanol had no effect on the activity of the enzyme) For the combination, 8-OH-quinoline was again dissolved in a small volume of ethanol, but diluted with 0.1M sodium phosphate buffer; pH6.5, containing tyrosinase in the appropriate concentration. Dilutions were made in buffer containing both 3% ethanol and tyrosinase so that both ethanol and tyrosinase concentrations remained constant as the 8-OH-quinoline concentration decreased. The combination was \"incubated\" at room temperature for 30 minutes before administration. The radio of enzyme to substrate administered in the combination was varied from 1:1 to 1:.125.\nActual doses administered and results comprise Table IV. Results are expressed as the ratio (T/C) of the test group mean day of death to control group mean day of death."}, "[6]": {"assay": "Day 1-5 weight change of L1210-bearing mice to assess toxicity", "format": "in vivo", "description": "as §3"}, "[7]": {"conditions": "8-Hydroxyquinoline 0.15 μg/ml, Tyrosinase 0"}},
  "note": "Values joined by “and” are separate entries in the source; they are usually repeats but may differ in a detail not shown here. Equal entries are not always repeated. Where two headings read alike, the source gives them in different places.",
  "data": [
    {"smiles": "Oc1cccc2cccnc12", "note": "[8-Hydroxyquinoline, 8-hydroxyquinoline]", "values": [
      {"measurement": "Reaction Rate", "setting": "[1]; 8-Hydroxyquinoline 10 μg/ml", "result": "0.0353 Δ OD/Min"},
      {"measurement": "Reaction Rate", "setting": "[1]; 8-Hydroxyquinoline 50 μg/ml", "result": "0.0160 Δ OD/Min"},
      {"measurement": "Reaction Rate", "setting": "[1]; 8-Hydroxyquinoline 200 μg/ml", "result": "0.0007 Δ OD/Min"},
      {"measurement": "L1210 Cell Growth (cell concentration day 3 - day 0)", "setting": "[2]; 8-Hydroxyquinoline 0.1 μg/ml, Tyrosinase 0", "result": "126.8 × 10^3 cells/ml"},
      {"measurement": "L1210 Cell Growth % Inhibition (%I)", "setting": "[2]; [7]", "result": 61.9, "unit": "%"},
      {"measurement": "L1210 Cell Growth (cell concentration day 3 - day 0)", "setting": "[2]; [7]", "result": "56.4 × 10^3 cells/ml"},
      {"measurement": "L1210 Cell Growth (cell concentration day 3 - day 0)", "setting": "[2]; 8-Hydroxyquinoline 0.2 μg/ml, Tyrosinase 0", "result": "7.4 × 10^3 cells/ml"},
      {"measurement": "Inhibition (%)", "setting": "[2]; Completed Medium, 0.15 g/ml 8-Hydroxyquinoline, two experiments", "result": "12.1% and 21.8%"},
      {"measurement": "Cell × 10^3 /ml", "setting": "[2]; Completed Medium, 0.15 g/ml 8-Hydroxyquinoline, two experiments (controls 391.9, 358.5)", "result": "344.5 × 10^3 /ml and 280.2 × 10^3 /ml"},
      {"measurement": "inhibition at 0.1 µg/mL", "setting": "[2]; Mus musculus, L1210, 8-Hydroxyquinoline 0.1 μg/ml, Tyrosinase 0, read-out: L1210 Cell Growth % Inhibition (%I)", "result": 14.3, "unit": "%"},
      {"measurement": "inhibition at 0.15 µg/mL", "setting": "[2]; Mus musculus, L1210, 8-Hydroxyquinoline 0.15 μg/ml, Tyrosinase 0, read-out: L1210 Cell Growth % Inhibition (%I)", "result": "> 60", "unit": "%"},
      {"measurement": "inhibition at 0.2 µg/mL", "setting": "[2]; Mus musculus, L1210, 8-Hydroxyquinoline 0.2 μg/ml, Tyrosinase 0, read-out: L1210 Cell Growth % Inhibition (%I)", "result": 95, "unit": "%"},
      {"measurement": "Inhibition (%)", "setting": "[3]; two experiments", "result": "45.6% and 52.2%"},
      {"measurement": "Cell × 10^3 /ml", "setting": "[3]; two experiments (controls 102.5, 62.1)", "result": "55.8 × 10^3 /ml and 29.7 × 10^3 /ml"},
      {"measurement": "LD50", "setting": "[4]", "result": "~75", "unit": "mg/kg"},
      {"measurement": "T/C (test group mean day of death / control group mean day of death)", "setting": "[5]; 2.5 mg/kg/day", "result": ".95"},
      {"measurement": "T/C (test group mean day of death / control group mean day of death)", "setting": "[5]; 5 mg/kg/day", "result": ".92"},
      {"measurement": "T/C (test group mean day of death / control group mean day of death)", "setting": "[5]; 10 mg/kg/day", "result": ".97"},
      {"measurement": "T/C (test group mean day of death / control group mean day of death)", "setting": "[5]; 20 mg/kg/day", "result": ".97"},
      {"measurement": "Mean day of Death (I.S.D.)", "setting": "[5]; mouse, in vivo, listed as 8-OH-quinoline", "result": "9.5 ± 0.8 days and 9.5 ± 0.4 days and 9.0 ± 0.6 days and 9.3 ± 0.8 days"},
      {"measurement": "Day 1-5 Weight Change", "setting": "[6]; 2.5 mg/kg/day", "result": -0.3, "unit": "gm/mouse"},
      {"measurement": "Day 1-5 Weight Change", "setting": "[6]; 5 mg/kg/day", "result": "+1.4 gm/mouse"},
      {"measurement": "Day 1-5 Weight Change", "setting": "[6]; 10 mg/kg/day", "result": "+1.0 gm/mouse"},
      {"measurement": "Day 1-5 Weight Change", "setting": "[6]; 20 mg/kg/day", "result": "+1.0 gm/mouse"}
    ]}
  ]
}
